Measurements published in ChEMBL document CHEMBL1201861, “Genomics of Drug Sensitity in Cancer screening data, Wellcome Trust Sanger Institute”.

Legend:
[1] = system: PF-382; assay: cells; format: functional, cell-based; conditions: Homo sapiens
Description: SANGER: Inhibition of human PF-382 cell growth in a cell viability assay.

[2] = system: REH; assay: cells; format: functional, cell-based; conditions: Homo sapiens;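 further: growth inhibition of REH cells determined with a cell viability read-out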
Description: SANGER: Inhibition of human REH cell growth in a cell viability assay.

[3] = system: NCI-H2171; assay: cells; format: functional, cell-based; conditions: Homo sapiens;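 further: growth inhibition of human NCI-H2171 cells, read out by a cell viability assay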
Description: SANGER: Inhibition of human NCI-H2171 cell growth in a cell viability assay.

[4] = system: NCI-H2081; assay: cells; format: functional, cell-based; conditions: Homo sapiens;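 further: growth inhibition of human NCI-H2081 cells, read out with a cell viability assay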
Description: SANGER: Inhibition of human NCI-H2081 cell growth in a cell viability assay.

[5] = system: LB831-BLC; assay: cells; format: functional, cell-based, Homo sapiens; conditions: Homo sapiens, LB831-BLC;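 further: growth inhibition of LB831-BLC cells, read out with a cell viability assay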
Description: SANGER: Inhibition of human LB831-BLC cell growth in a cell viability assay.

[6] = system: YT; assay: cells; format: functional, cell-based; conditions: Homo sapiens
Description: SANGER: Inhibition of human YT cell growth in a cell viability assay.

[7] = system: KMS-12-PE; assay: cells; format: functional, cell-based; conditions: Homo sapiens;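 further: growth inhibition of human KMS-12-PE cells, measured with a cell viability assay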
Description: SANGER: Inhibition of human KMS-12-PE cell growth in a cell viability assay.

[8] = system: EM-2; assay: cells; format: functional, cell-based; conditions: Homo sapiens;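 further: growth inhibition of EM-2 cells, read out with a cell viability assay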
Description: SANGER: Inhibition of human EM-2 cell growth in a cell viability assay.

[9] = system: GDM-1; assay: cells; format: functional, cell-based; conditions: Homo sapiens;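 further: cell viability readout used to measure growth inhibition of human GDM-1 cells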
Description: SANGER: Inhibition of human GDM-1 cell growth in a cell viability assay.

[10] = system: NCI-H889; assay: cells; format: functional, cell-based; conditions: Homo sapiens;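 further: cell growth inhibition of the cell line, read out with a viability assay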
Description: SANGER: Inhibition of human NCI-H889 cell growth in a cell viability assay.

[11] = system: NCI-H719; assay: cells; format: functional, cell-based; conditions: Homo sapiens;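 further: growth inhibition of the cultured cell line, read out with a viability assay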
Description: SANGER: Inhibition of human NCI-H719 cell growth in a cell viability assay.

[12] = system: NCI-H1882; assay: cells; format: functional, cell-based; conditions: Homo sapiens;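 further: growth inhibition of the cell line, determined with a viability assay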
Description: SANGER: Inhibition of human NCI-H1882 cell growth in a cell viability assay.

[13] = system: ST486; assay: SANGER: Inhibition of human ST486 cell growth in a cell viability assay.; format: functional, cell-based
[14] = system: BOKU; assay: cells; format: functional, cell-based; conditions: Homo sapiens;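 further: growth inhibition of the human BOKU cell line, read out by a cell viability assay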
Description: SANGER: Inhibition of human BOKU cell growth in a cell viability assay.

[15] = system: NALM-6; assay: cells; format: functional, cell-based; conditions: Homo sapiens;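 further: growth inhibition of NALM-6 cells, read out with a cell viability assay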
Description: SANGER: Inhibition of human NALM-6 cell growth in a cell viability assay.

[16] = system: SK-MM-2; assay: cells; format: functional, cell-based; conditions: Homo sapiens;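 further: growth inhibition of human SK-MM-2 cells, read out with a cell viability assay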
Description: SANGER: Inhibition of human SK-MM-2 cell growth in a cell viability assay.

[17] = system: EB-3; assay: cells; format: functional, cell-based; conditions: Homo sapiens;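 further: human EB-3 cells, growth inhibition read out via a cell viability assay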
Description: SANGER: Inhibition of human EB-3 cell growth in a cell viability assay.

[18] = system: ES1; assay: cells; format: functional, cell-based, Homo sapiens; conditions: Homo sapiens, ES1;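 further: growth inhibition of ES1 cells, read out with a cell viability assay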
Description: SANGER: Inhibition of human ES1 cell growth in a cell viability assay.

[19] = system: NCI-H187; assay: cells; format: functional, cell-based; conditions: Homo sapiens;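 further: growth inhibition of NCI-H187 cells, read out as cell viability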
Description: SANGER: Inhibition of human NCI-H187 cell growth in a cell viability assay.

[20] = system: OPM-2; assay: cells; format: functional, cell-based; conditions: Homo sapiens;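 further: growth of OPM-2 cells measured with a viability assay, IC50 for suppression of proliferation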
Description: SANGER: Inhibition of human OPM-2 cell growth in a cell viability assay.

[21] = system: EVSA-T; assay: cells; format: functional, cell-based, Homo sapiens; conditions: Homo sapiens, EVSA-T;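 further: growth inhibition of EVSA-T cells, read out with a cell viability assay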
Description: SANGER: Inhibition of human EVSA-T cell growth in a cell viability assay.

[22] = system: HEL; assay: cells; format: functional, cell-based, Homo sapiens; conditions: Homo sapiens, HEL;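 further: growth inhibition of HEL cells, read out with a cell viability assay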
Description: SANGER: Inhibition of human HEL cell growth in a cell viability assay.

[23] = system: Calu-6; assay: cells; format: functional, cell-based, Homo sapiens; conditions: Homo sapiens, Calu-6;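 further: growth of human Calu-6 cells, read out by a cell viability assay, IC50 marking inhibition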
Description: SANGER: Inhibition of human Calu-6 cell growth in a cell viability assay.

[24] = system: IMR-5; assay: cells; format: functional, cell-based; conditions: Homo sapiens;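 further: growth inhibition of human IMR-5 cells, read out with a cell viability assay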
Description: SANGER: Inhibition of human IMR-5 cell growth in a cell viability assay.

[25] = system: BL-70; assay: SANGER: Inhibition of human BL-70 cell growth in a cell viability assay.; format: functional, cell-based
[26] = system: NB5; assay: cells; format: functional, cell-based, Homo sapiens; conditions: Homo sapiens, NB5;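 further: growth inhibition of NB5 cells, read out as cell viability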
Description: SANGER: Inhibition of human NB5 cell growth in a cell viability assay.

[27] = system: NCI-H716; assay: cells; format: functional, cell-based; conditions: Homo sapiens;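 further: growth inhibition of human NCI-H716 cells, measured by a cell viability assay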
Description: SANGER: Inhibition of human NCI-H716 cell growth in a cell viability assay.

[28] = system: CHP-126; assay: cells; format: functional, cell-based; conditions: Homo sapiens
Description: SANGER: Inhibition of human CHP-126 cell growth in a cell viability assay.

[29] = system: DMS-153; assay: cells; format: functional, cell-based; conditions: Homo sapiens
Description: SANGER: Inhibition of human DMS-153 cell growth in a cell viability assay.

[30] = system: SUP-T1; assay: cells; format: functional, cell-based; conditions: Homo sapiens;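 further: growth inhibition of human SUP-T1 cells, read out as cell viability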
Description: SANGER: Inhibition of human SUP-T1 cell growth in a cell viability assay.

[31] = system: Raji; assay: cells; format: functional, cell-based; conditions: Homo sapiens;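 further: cell viability assay measuring inhibition of Raji cell growth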
Description: SANGER: Inhibition of human Raji cell growth in a cell viability assay.

[32] = system: NCI-H1694; assay: cells; format: functional, cell-based; conditions: Homo sapiens;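 further: cell viability assay measuring inhibition of growth in human NCI-H1694 cells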
Description: SANGER: Inhibition of human NCI-H1694 cell growth in a cell viability assay.

[33] = system: LB996-RCC; assay: cells; format: functional, cell-based; conditions: Homo sapiens
Description: SANGER: Inhibition of human LB996-RCC cell growth in a cell viability assay.

[34] = system: HCC2157; assay: cells; format: functional, cell-based; conditions: Homo sapiens;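 further: growth inhibition of the cancer cell line, read out as cell viability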
Description: SANGER: Inhibition of human HCC2157 cell growth in a cell viability assay.

[35] = system: EHEB; assay: cells; format: functional, cell-based; conditions: Homo sapiens;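 further: growth inhibition of human EHEB cells, read out with a cell viability assay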
Description: SANGER: Inhibition of human EHEB cell growth in a cell viability assay.

[36] = system: CCRF-CEM; assay: cells; format: functional, cell-based; conditions: Homo sapiens;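 further: inhibition of CCRF-CEM cell growth, measured by a cell viability assay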
Description: SANGER: Inhibition of human CCRF-CEM cell growth in a cell viability assay.

[37] = system: SF-539; assay: cells; format: functional, cell-based, Homo sapiens; conditions: Homo sapiens, SF-539;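 further: Read-out is a cell viability assay, with IC50 reflecting inhibition of cell growth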
Description: SANGER: Inhibition of human SF539 cell growth in a cell viability assay.

[38] = system: LC-1F; assay: cells; format: functional, cell-based; conditions: Homo sapiens;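 further: growth inhibition of human LC-1F cells, read out with a cell viability assay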
Description: SANGER: Inhibition of human LC-1F cell growth in a cell viability assay.

[39] = system: SIMA; assay: cells; format: functional, cell-based, Homo sapiens; conditions: Homo sapiens, SIMA;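 further: growth inhibition of SIMA cells, measured with a cell viability readout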
Description: SANGER: Inhibition of human SIMA cell growth in a cell viability assay.

[40] = system: NB6; assay: cells; format: functional, cell-based, Homo sapiens; conditions: Homo sapiens, NB6;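 further: growth inhibition of NB6 cells, read out by a cell viability assay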
Description: SANGER: Inhibition of human NB6 cell growth in a cell viability assay.

[41] = system: CPC-N; assay: cells; format: functional, cell-based; conditions: Homo sapiens;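 further: growth inhibition of CPC-N cells, with a cell viability assay as the readout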
Description: SANGER: Inhibition of human CPC-N cell growth in a cell viability assay.

[42] = system: J-RT3-T3-5; assay: cells; format: functional, cell-based; conditions: Homo sapiens;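 further: cell viability assay measuring growth inhibition of human J-RT3-T3-5 cells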
Description: SANGER: Inhibition of human J-RT3-T3-5 cell growth in a cell viability assay.

[43] = system: MV4-11; assay: cells; format: functional, cell-based, MV-4-11; conditions: Homo sapiens;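 further: cell viability readout measuring growth inhibition of human MV-4-11 cells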
Description: SANGER: Inhibition of human MV-4-11 cell growth in a cell viability assay.

Work on `CCC(=O)N1CCN(c2ccc(-n3c(=O)ccc4cnc5ccc(-c6cnc7ccccc7c6)cc5c43)cc2C(F)(F)F)CC1` [TORIN1] yielded an IC50 [1] of 0.0757 µM, an IC50 [2] of over 1.2 µM and an IC50 [3] of over 1.2 µM. It also gave an IC50 [4] of over 1.2 µM, an IC50 [5] of 0.161 µM and an IC50 [6] of over 1.2 µM. For the same compound, the IC50 [7] was over 1.2 µM, the IC50 [8] was 0.115 µM and the IC50 [9] was 0.372 µM. The IC50 [10] was over 1.2 µM, the IC50 [11] was 0.967 µM and the IC50 [12] was 0.167 µM. It also gave an IC50 [13] of 0.106 µM, an IC50 [14] of 0.372 µM and an IC50 [15] of 0.011 µM. It also gave an IC50 [16] of 0.107 µM, an IC50 [17] of 0.0364 µM and an IC50 [18] of 0.031 µM. The IC50 [19] was 0.478 µM, the IC50 [20] was 0.0129 µM and the IC50 [21] was 0.00892 µM. For the same compound, the IC50 [22] was 0.0164 µM, the IC50 [23] was 0.165 µM and the IC50 [24] was 0.165 µM. It also gave an IC50 [25] of 0.00337 µM, an IC50 [26] of 0.0963 µM and an IC50 [27] of over 1.2 µM. The IC50 [28] was over 1.2 µM, the IC50 [29] was over 1.2 µM and the IC50 [30] was over 1.2 µM. For the same compound, the IC50 [31] was over 1.2 µM, the IC50 [32] was 0.507 µM and the IC50 [33] was 0.0114 µM. For the same compound, the IC50 [34] was 0.34 µM, the IC50 [35] was 0.512 µM and the IC50 [36] was 0.0337 µM. For the same compound, the IC50 [37] was 0.984 µM, the IC50 [38] was 0.0399 µM and the IC50 [39] was over 1.2 µM. It also gave an IC50 [40] of 0.0527 µM, an IC50 [41] of 1.16 µM and an IC50 [42] of 0.0915 µM. The IC50 [43] was 0.07 µM.

Work on `Cc1cc(Nc2cc(N3CCN(C)CC3)nc(Sc3ccc(NC(=O)C4CC4)cc3)n2)n[nH]1` [TOZASERTIB] yielded an IC50 [1] of over 2 µM, an IC50 [2] of over 2 µM and an IC50 [3] of over 2 µM. The IC50 [4] was over 2 µM, the IC50 [5] was over 2 µM and the IC50 [6] was over 2 µM. The IC50 [7] was over 2 µM, the IC50 [8] was 0.266 µM and the IC50 [9] was over 2 µM. The IC50 [10] was over 2 µM, the IC50 [11] was over 2 µM and the IC50 [12] was over 2 µM. The IC50 [13] was 0.231 µM, the IC50 [14] was over 2 µM and the IC50 [15] was 0.0255 µM. It also gave an IC50 [16] of over 2 µM, an IC50 [17] of over 2 µM and an IC50 [18] of over 2 µM. It also gave an IC50 [19] of 0.641 µM, an IC50 [20] of over 2 µM and an IC50 [21] of over 2 µM. The IC50 [22] was over 2 µM, the IC50 [23] was over 2 µM and the IC50 [24] was 0.355 µM. For the same compound, the IC50 [25] was 0.39 µM, the IC50 [26] was 1.64 µM and the IC50 [27] was over 2 µM. It also gave an IC50 [28] of over 2 µM, an IC50 [29] of over 2 µM and an IC50 [30] of over 2 µM. The IC50 [31] was over 2 µM, the IC50 [32] was over 2 µM and the IC50 [33] was over 2 µM. For the same compound, the IC50 [34] was over 2 µM, the IC50 [35] was over 2 µM and the IC50 [36] was 0.653 µM. For the same compound, the IC50 [37] was over 2 µM, the IC50 [38] was over 2 µM and the IC50 [39] was over 2 µM. It also gave an IC50 [40] of 0.773 µM, an IC50 [41] of over 2 µM and an IC50 [42] of over 2 µM. It also gave an IC50 [43] of 0.0778 µM.
